Measured values reported in patent US20040186117A1, “Marker” (priority 2001, published 2004).
“And” between values parts separate entries of the source, which are not always exact repeats. Equal values may be shown once. “Also recorded” adds a separate entry of the source.

What was measured:
[1] = system: RB phosphorylation (Ser780, Ser608) in HT29 cells; assay: Western blotting for RB phosphorylation in HT29 cells; type: cell-based, human; settings: for time of loss of RB phosphorylation after exposure: HT29, 50 μM; for effect on RB phosphorylation: HT29, equitoxic (3×96 h IC50) concentration, 24 h
Text: (§1) This antibody was selected as a representative marker for all tested phosphorylation sites of RB (see Section 2). […] A general loss of RB phosphorylation is indicated by a switch from a broad band to a thin, more rapidly migrating band for total RB (see Section 2, FIG. 9).
(§2) Samples were harvested for western blotting or for cell cycle analysis by FACS. […] Since validating the original phospho-specific antibodies, a Ser608 antibody became available from Dr Sibylle Mittnacht. This site is potentially phosphorylated by CDK4/cyclin D1 and CDK2/cyclin A (Zarkowska and Mittnacht, J. Biol Chem (1997) 9:272 12738-46).

cyclin D1 in HT29 cells = assay: Western blotting for cyclin D1 expression in HT29 cells; settings: HT29, 50 μM
[2] = system: c-FOS protein in HT29 cells; settings: for effect on c-FOS protein level: HT29, 50 μM
[3] = system: ERK1/2 phosphorylation in KM12 cells; assay: Western blotting for phospho-ERK1/2 in KM12 cells; type: cell-based, human
[4] = system: ERK1/2 phosphorylation in HT29 cells; assay: Western blotting for phospho-ERK1/2 in HT29 cells; type: cell-based, human; settings: for effect on ERK phosphorylation: HT29, equitoxic (3×96 h IC50) concentration, 24 h
[5] = system: ELK-1 phosphorylation (Ser383) in HT29 cells
[6] = system: RB phosphorylation (Ser780) in KM12 cells; settings: KM12, 50 μM
Text: as §1, §2

[7] = HT29, 10 μM with 50 μM R-roscovitine

Compound | time of loss of RB phosphorylation after exposure [1] | effect on cyclin D1 expression (cyclin D1 in HT29 cells) | effect on c-FOS protein level [2] | effect on RB phosphorylation [1] | effect on ERK phosphorylation [4] | further results
CC[C@H](CO)Nc1nc(NCc2ccccc2)c2ncn(C(C)C)c2n1 (racemic) [roscovitine] | 24 h | decreased levels | increased levels | – | – | –
CC[C@H](CO)Nc1nc(NCc2ccccc2)c2ncn(C(C)C)c2n1 [R-roscovitine, 2-(R)-(1-ethyl-2-hydroxyethylamino)-6-benzylamino-9-isopropylpurine] | 12 to 24 h and 24 h | inhibited the expression | induction of c-FOS protein | inhibited RB phosphorylation | induced ERK phosphorylation | kinetics of induction of ERK phosphorylation compared with HT29 ([3]; KM12, 50 μM time course): slower kinetics; effect on phosphorylated ERK1/2 ([3]; KM12, increasing concentrations, 24 h exposure): increase of phosphorylated ERK1/2; phospho-ERK1/2 level at 24 h ([4]; HT29, 50 μM time course): remaining above basal levels; time of onset of induction of ERK phosphorylation ([4]; HT29, 50 μM time course): 1 h; time at which induction of ERK phosphorylation was observed ([4]; HT29, 50 μM, experiment with U0126 (FIG. 5B)): 4 to 24 h; effect on phosphorylated ERK1/2 ([4]; HT29, increasing concentrations, 24 h exposure): increase of phosphorylated ERK1/2; effect on ELK-1 phosphorylation ([5]; HT29, 50 μM, after 4 h): strong induction; time of loss of RB phosphorylation after exposure [6]: 12 to 24 h; time at which an increase of c-FOS protein was detected ([2]; HT29, 50 μM time course): 12 to 24 h
N#CC(=C(/N)Sc1ccccc1N)/C(C#N)=C(\N)Sc1ccccc1N [U0126, reference compound] | – | – | – | – | – | effect on R-roscovitine-induced ERK phosphorylation [4, 7]: prevented the induction; effect on R-roscovitine-induced ELK-1 phosphorylation [5, 7]: blocked the phosphorylation; effect on R-roscovitine-induced increase in c-FOS [2, 7]: blocked
O=C1Cc2c([nH]c3ccc([N+](=O)[O-])cc23)-c2ccccc2N1 [alsterpaullone] | – | – | – | failed to inhibit RB phosphorylation | fails to induce; also recorded: no effect upon ERK | –
CN1CC[C@H](c2c(O)cc(O)c3c(=O)cc(-c4ccccc4Cl)oc23)[C@H](O)C1 [flavopiridol] | – | – | – | failed to inhibit RB phosphorylation | fails to induce; also recorded: no effect upon ERK | –
CC(C)[C@H](CO)Nc1nc(Nc2cccc(Cl)c2)c2ncn(C(C)C)c2n1 [purvalanol A] | – | – | – | inhibited RB phosphorylation | fails to induce; also recorded: failed to induce ERK phosphorylation | –
